Experimental data reported in paper PMC4475657 (Iranian Journal of Basic Medical Sciences, 2015).

Biological target: human tau protein 1N/4R isoform (htau34) (Homo sapiens, UniProt P10636)
Assay: ThT fluorescence aggregation assay of purified tau
Assay type: biochemical

human tau protein 1N/4R isoform (htau34), sequence (P10636 1-412 isoform P10636-7): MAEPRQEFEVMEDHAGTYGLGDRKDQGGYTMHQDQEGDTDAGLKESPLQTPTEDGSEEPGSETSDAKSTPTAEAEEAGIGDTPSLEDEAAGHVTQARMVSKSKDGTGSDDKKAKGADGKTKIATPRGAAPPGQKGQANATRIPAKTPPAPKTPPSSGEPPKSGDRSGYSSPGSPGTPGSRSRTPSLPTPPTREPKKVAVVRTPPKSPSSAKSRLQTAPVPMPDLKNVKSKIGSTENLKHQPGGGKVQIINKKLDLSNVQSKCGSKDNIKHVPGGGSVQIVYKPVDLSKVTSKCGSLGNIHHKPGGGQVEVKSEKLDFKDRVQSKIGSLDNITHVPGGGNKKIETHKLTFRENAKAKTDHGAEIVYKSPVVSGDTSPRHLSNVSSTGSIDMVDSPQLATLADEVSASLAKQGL

IC50: 102 µM
Structure (SMILES): CC(/C=C/C=C(\C)C(=O)O[C@@H]1O[C@H](CO[C@@H]2O[C@H](CO)[C@@H](O)[C@H](O)[C@H]2O)[C@@H](O)[C@H](O)[C@H]1O)=C\C=C\C=C(C)\C=C\C=C(/C)C(=O)O[C@@H]1O[C@H](CO[C@@H]2O[C@H](CO)[C@@H](O)[C@H](O)[C@H]2O)[C@@H](O)[C@H](O)[C@H]1O [crocin]
